Test results taken from PMC11589570, “Critical assessment of LC3/GABARAP ligands used for degrader development and ligandability of LC3/GABARAP binding pockets” (Nature Communications, 2024).
“Also recorded” adds a separate entry of the source. Like-named read-outs stand apart in the source and are kept apart here.

Biological target: GABARAPL2 (Homo sapiens, UniProt P60520)
Conditions: for CSP: GABARAPL2:ligand molar ratio 1:2; for 3D Mapping code: molar ratio 1:2

GABARAPL2, sequence (P60520 whole entry): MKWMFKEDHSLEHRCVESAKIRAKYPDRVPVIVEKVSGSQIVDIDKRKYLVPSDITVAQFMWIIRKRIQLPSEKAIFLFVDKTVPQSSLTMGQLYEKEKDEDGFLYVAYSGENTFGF

O=C1Nc2ccc(I)cc2C1=Cc1cc(Br)c(O)c(Br)c1 [compound 4]
interaction in 2D NMR titration (GABARAPL2, listed as 10O5): only 10O5 (4) was able to interact with GABARAPL2; also recorded: prominent CSP
CSP induced, K48 HN resonance (Molar ratio 10O5:GABARAPL2 0.5): 0.08111
CSP induced, L50 HN resonance (Molar ratio 10O5:GABARAPL2 0.5): 0.0416
CSP induced, R28 HN resonance (Molar ratio 10O5:GABARAPL2 0.5): 0.0281
CSP induced, V16 HN resonance (Molar ratio 10O5:GABARAPL2 0.5): 0.00761
CSP induced, V31 HN resonance (Molar ratio 10O5:GABARAPL2 0.5): 0.04746
CSP induced, Y109 HN resonance (Molar ratio 10O5:GABARAPL2 0.5): 0.01545
CSP induced, K48 HN resonance (Molar ratio 10O5:GABARAPL2 1): 0.1338
CSP induced, L50 HN resonance (Molar ratio 10O5:GABARAPL2 1): 0.06831
CSP induced, R28 HN resonance (Molar ratio 10O5:GABARAPL2 1): 0.04204
CSP induced, V16 HN resonance (Molar ratio 10O5:GABARAPL2 1): 0.03636
CSP induced, V31 HN resonance (Molar ratio 10O5:GABARAPL2 1): 0.08123
CSP induced, Y109 HN resonance (Molar ratio 10O5:GABARAPL2 1): 0.03416
CSP induced, K48 HN resonance (Molar ratio 10O5:GABARAPL2 2): 0.1662
CSP induced, L50 HN resonance (Molar ratio 10O5:GABARAPL2 2): 0.09155
CSP induced, R28 HN resonance (Molar ratio 10O5:GABARAPL2 2): 0.06538
CSP induced, V16 HN resonance (Molar ratio 10O5:GABARAPL2 2): 0.05012
CSP induced, V31 HN resonance (Molar ratio 10O5:GABARAPL2 2): 0.1265
CSP induced, Y109 HN resonance (Molar ratio 10O5:GABARAPL2 2): 0.04477
CSP induced, K48 HN resonance (Molar ratio 10O5:GABARAPL2 4): 0.2294
CSP induced, L50 HN resonance (Molar ratio 10O5:GABARAPL2 4): 0.1327
CSP induced, R28 HN resonance (Molar ratio 10O5:GABARAPL2 4): 0.07911
CSP induced, V16 HN resonance (Molar ratio 10O5:GABARAPL2 4): 0.07334
CSP induced, V31 HN resonance (Molar ratio 10O5:GABARAPL2 4): 0.1464
CSP induced, Y109 HN resonance (Molar ratio 10O5:GABARAPL2 4): 0.06741
CSP (residue A19): 0.086 ppm
3D Mapping code (residue A19): Orange
CSP (residue A23): 0.058 ppm
3D Mapping code (residue A23): Orange
CSP (residue A58): 0.016 ppm
CSP (residue A75): 0.00255 ppm
CSP (residue A108): 0.017 ppm
CSP (residue C15): 0.019 ppm
CSP (residue D8): 0.007 ppm
CSP (residue D27): 0.029 ppm
3D Mapping code (residue D27): Light green
CSP (residue D43): 0.009 ppm
CSP (residue D45): 0.030 ppm
3D Mapping code (residue D45): Light green
CSP (residue D54): 0.029 ppm
3D Mapping code (residue D54): Light green
CSP (residue D81): 0.022 ppm
CSP (residue D100): 0.018 ppm
CSP (residue D102): 0.033 ppm
3D Mapping code (residue D102): Light green
CSP (residue E7): 0.029 ppm
3D Mapping code (residue E7): Light green
CSP (residue E12): 0.015 ppm
CSP (residue E17): 0.081 ppm
3D Mapping code (residue E17): Orange
CSP (residue E34): 0.060 ppm
3D Mapping code (residue E34): Orange
CSP (residue E73): 0.00458 ppm
CSP (residue E96): 0.019 ppm
CSP (residue E98): 0.025 ppm
CSP (residue E101): 0.007 ppm
CSP (residue E112): 0.00563 ppm
CSP (residue F60): 0.00542 ppm
CSP (residue F77): 0.006 ppm
CSP (residue F79): 0.007 ppm
CSP (residue F104): 0.059 ppm
3D Mapping code (residue F104): Orange
CSP (residue F115): 0.012 ppm
CSP (residue G38): 0.040 ppm
3D Mapping code (residue G38): Light green
CSP (residue G103): 0.019 ppm
CSP (residue G111): 0.010 ppm
CSP (residue G116): 0.007 ppm
CSP (residue H9): 0.008 ppm
CSP (residue H13): 0.031 ppm
3D Mapping code (residue H13): Light green
CSP (residue I21): 0.054 ppm
3D Mapping code (residue I21): Orange
CSP (residue I32): 0.057 ppm
3D Mapping code (residue I32): Blue
CSP (residue I41): 0.00428 ppm
CSP (residue I44): 0.029 ppm
3D Mapping code (residue I44): Light green
CSP (residue I55): 0.026 ppm
3D Mapping code (residue I55): Light green
CSP (residue I63): 0.014 ppm
CSP (residue I64): 0.021 ppm
CSP (residue I68): 0.021 ppm
CSP (residue I76): 0.004 ppm
CSP (residue K2): 0.017 ppm
CSP (residue K6): 0.023 ppm
CSP (residue K20): 0.058 ppm
3D Mapping code (residue K20): Orange
CSP (residue K24): 0.015 ppm
CSP (residue K35): 0.014 ppm
CSP (residue K46, estimated): 0.050 ppm
3D Mapping code (residue K46): Blue
CSP (residue K48): 0.168 ppm
3D Mapping code (residue K48): Blue
CSP (residue K66): 0.020 ppm
CSP (residue K74): 0.011 ppm
CSP (residue K97): 0.012 ppm
CSP (residue K99): 0.018 ppm
CSP (residue L11): 0.016 ppm
CSP (residue L50): 0.096 ppm
3D Mapping code (residue L50): Blue
CSP (residue L70): 0.006 ppm
CSP (residue L78): 0.006 ppm
CSP (residue L105): 0.060 ppm
3D Mapping code (residue L105): Orange
CSP (residue M1): 0.010 ppm
CSP (residue M61): 0.015 ppm
CSP (residue N113): 0.00264 ppm
CSP (residue P26, estimated): 0.050 ppm
3D Mapping code (residue P26): Light green
CSP (residue P30, estimated): 0.110 ppm
3D Mapping code (residue P30): Blue
CSP (residue P52, estimated): 0.070 ppm
3D Mapping code (residue P52): Blue
CSP (residue P71, estimated): 0.010 ppm
CSP (residue Q40): 0.017 ppm
CSP (residue Q59): 0.016 ppm
CSP (residue Q69): 0.020 ppm
CSP (residue R14): 0.091 ppm
3D Mapping code (residue R14): Orange
CSP (residue R22): 0.083 ppm
3D Mapping code (residue R22): Orange
CSP (residue R28): 0.064 ppm
3D Mapping code (residue R28): Orange
CSP (residue R47, estimated): 0.100 ppm
3D Mapping code (residue R47): Blue
CSP (residue R65): 0.008 ppm
CSP (residue R67): 0.00158 ppm
CSP (residue S10): 0.019 ppm
CSP (residue S18): 0.021 ppm
CSP (residue S37): 0.030 ppm
3D Mapping code (residue S37): Light green
CSP (residue S39): 0.017 ppm
CSP (residue S53): 0.076 ppm
3D Mapping code (residue S53): Orange
CSP (residue S72): 0.004 ppm
CSP (residue S110): 0.010 ppm
CSP (residue T56): 0.008 ppm
CSP (residue T114): 0.00144 ppm
CSP (residue V16): 0.051 ppm
3D Mapping code (residue V16): Light green
CSP (residue V29): 0.102 ppm
3D Mapping code (residue V29): Blue
CSP (residue V31): 0.128 ppm
3D Mapping code (residue V31): Blue
CSP (residue V33): 0.064 ppm
3D Mapping code (residue V33): Orange
CSP (residue V36): 0.024 ppm
CSP (residue V42): 0.00232 ppm
CSP (residue V51): 0.077 ppm
3D Mapping code (residue V51): Blue
CSP (residue V57): 0.024 ppm
CSP (residue V80): 0.028 ppm
3D Mapping code (residue V80): Light green
CSP (residue V107): 0.039 ppm
3D Mapping code (residue V107): Light green
CSP (residue W3): 0.022 ppm
CSP (residue W62): 0.016 ppm
CSP (residue Y25): 0.085 ppm
3D Mapping code (residue Y25): Orange
CSP (residue Y49): 0.148 ppm
3D Mapping code (residue Y49): Blue
CSP (residue Y106): 0.097 ppm
3D Mapping code (residue Y106): Orange
CSP (residue Y109): 0.012 ppm
